Results from patent US6720423B2, “Dihydrobenzofuran and dihydrobenzothiophene 2,4-pentadienoic acid derivatives having selective activity for retinoid X (RXR) receptors” (Allergan, Inc., priority 2002, dated 2004).

Assays:
RARβ = molecular target: T1, RARβ (Homo sapiens, UniProt P10826); assay: ligand binding assay, RARβ; details: second entry of cell, read-out: RAR Bind. Ki (nM) β
T1 sequence (P10826 1-455): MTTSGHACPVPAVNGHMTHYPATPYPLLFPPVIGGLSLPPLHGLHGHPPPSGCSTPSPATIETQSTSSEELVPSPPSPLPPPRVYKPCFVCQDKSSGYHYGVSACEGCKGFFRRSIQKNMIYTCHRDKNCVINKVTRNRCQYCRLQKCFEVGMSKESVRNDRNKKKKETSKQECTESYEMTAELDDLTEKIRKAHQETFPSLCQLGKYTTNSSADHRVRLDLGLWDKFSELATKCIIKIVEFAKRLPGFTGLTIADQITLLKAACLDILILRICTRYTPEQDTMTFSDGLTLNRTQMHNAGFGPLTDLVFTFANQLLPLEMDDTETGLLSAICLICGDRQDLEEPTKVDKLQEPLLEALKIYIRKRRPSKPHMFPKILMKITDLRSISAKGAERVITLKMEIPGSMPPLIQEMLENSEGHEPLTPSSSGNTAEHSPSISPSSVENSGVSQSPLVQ
From the text: (§1) A holoreceptor transactivation assay and a ligand binding assay which measure the antagonist/agonist like activity of the compounds of the invention, or their ability to bind to the several retinoid receptor subtypes, respectively, are described in published PCT Application No. WO WO93/11755 (particularly on pages 30-33 and 37-41) published on Jun. 24, 1993, the specification of which is also incorporated herein by reference. A detailed experimental procedure for holoreceptor transactivations has been described by Heyman et al. Cell 68, 397-406, (1992); Allegretto et al. J. Biol. Chem. 268, 26625-26633, and Mangelsdorf et al. The Retinoids: Biology, Chemistry and Medicine, pp 319-349, Raven Press Ltd., New York, which are expressly incorporated herein by reference. The results obtained in this assay are expressed in EC50 numbers, as they are also in the chimeric receptor transactivation assay. The results of ligand binding assay are expressed in Kd numbers. (See Cheng et al. Biochemical Pharmacology Vol. 22 pp 3099-3108, expressly incorporated herein by reference.)

RXRβ [1] = molecular target: T2, RXRβ (UniProt P28704); assay: ligand binding assay, RXRβ; set-up: other: RXRβ; last entry of cell; details: last entry of cell, read-out: RXR Bind Ki (nM) β
T2 sequence (P28704 1-520): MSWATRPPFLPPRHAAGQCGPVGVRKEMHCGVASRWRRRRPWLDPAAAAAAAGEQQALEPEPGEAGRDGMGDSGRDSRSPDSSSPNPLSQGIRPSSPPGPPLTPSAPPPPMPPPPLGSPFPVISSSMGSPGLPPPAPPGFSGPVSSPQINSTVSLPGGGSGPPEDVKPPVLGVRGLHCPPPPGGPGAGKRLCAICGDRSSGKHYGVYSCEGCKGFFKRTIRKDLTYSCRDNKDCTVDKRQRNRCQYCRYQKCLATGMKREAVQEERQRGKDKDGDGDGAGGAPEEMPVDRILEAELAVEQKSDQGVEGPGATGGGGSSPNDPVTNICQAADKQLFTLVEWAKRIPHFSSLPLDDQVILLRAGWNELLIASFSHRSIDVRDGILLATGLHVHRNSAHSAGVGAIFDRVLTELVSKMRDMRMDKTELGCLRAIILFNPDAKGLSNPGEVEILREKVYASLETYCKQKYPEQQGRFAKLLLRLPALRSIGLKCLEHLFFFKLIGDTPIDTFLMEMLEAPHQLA
From the text: as §1

RXRα [2] = molecular target: T3, RXRα (Homo sapiens, UniProt P19793); assay: receptor transactivation assay, RXRα; assay type: cell-based; details: first entry of cell, read-out: RXR Trans. EC50 (nM) α
T3 construct: the only RXRα plasmid printed
T3 sequence (P19793 227-462 limits assumed): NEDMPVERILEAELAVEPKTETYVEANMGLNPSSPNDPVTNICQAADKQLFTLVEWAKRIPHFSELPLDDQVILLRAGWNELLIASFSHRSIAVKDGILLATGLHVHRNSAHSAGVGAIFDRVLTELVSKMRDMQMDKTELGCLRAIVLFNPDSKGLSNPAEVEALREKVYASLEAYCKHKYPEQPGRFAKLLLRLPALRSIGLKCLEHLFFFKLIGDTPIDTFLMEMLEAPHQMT
From the text: as §1

RXRβ [3] = molecular target: T2, RXRβ; assay: receptor transactivation assay, RXRβ; assay type: cell-based; set-up: RXR Trans; other: RXRβ; first entry of cell; details: for EC50: first entry of cell, read-out: RXR Trans. EC50 (nM) β; for RXR Trans. β, number in parentheses after EC50: parenthesised number, not defined in the patent
From the text: as §1

RXRα [4] = molecular target: T4, RXRα (Homo sapiens, UniProt P19793); assay: ligand binding assay, RXRα; details: last entry of cell, read-out: RXR Bind Ki (nM) α
T4 sequence (P19793 1-462): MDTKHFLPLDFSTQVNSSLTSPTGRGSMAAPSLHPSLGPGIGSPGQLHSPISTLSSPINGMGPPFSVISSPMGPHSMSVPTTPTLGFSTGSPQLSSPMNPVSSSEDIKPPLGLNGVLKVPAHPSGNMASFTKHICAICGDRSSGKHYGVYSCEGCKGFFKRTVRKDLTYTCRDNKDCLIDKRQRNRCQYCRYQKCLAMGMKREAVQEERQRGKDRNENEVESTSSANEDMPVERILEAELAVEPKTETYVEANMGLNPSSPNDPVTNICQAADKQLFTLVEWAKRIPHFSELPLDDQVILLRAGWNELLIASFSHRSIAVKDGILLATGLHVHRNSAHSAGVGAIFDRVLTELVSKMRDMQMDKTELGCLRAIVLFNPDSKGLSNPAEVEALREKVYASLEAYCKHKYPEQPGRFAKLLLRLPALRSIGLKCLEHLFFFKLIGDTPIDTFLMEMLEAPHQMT
From the text: as §1

RXRγ = molecular target: T5, RXRγ (UniProt P28705); assay: ligand binding assay, RXRγ; set-up: other: RXRγ; last entry of cell; details: last entry of cell, read-out: RXR Bind Ki (nM) γ
T5 sequence (P28705 1-463): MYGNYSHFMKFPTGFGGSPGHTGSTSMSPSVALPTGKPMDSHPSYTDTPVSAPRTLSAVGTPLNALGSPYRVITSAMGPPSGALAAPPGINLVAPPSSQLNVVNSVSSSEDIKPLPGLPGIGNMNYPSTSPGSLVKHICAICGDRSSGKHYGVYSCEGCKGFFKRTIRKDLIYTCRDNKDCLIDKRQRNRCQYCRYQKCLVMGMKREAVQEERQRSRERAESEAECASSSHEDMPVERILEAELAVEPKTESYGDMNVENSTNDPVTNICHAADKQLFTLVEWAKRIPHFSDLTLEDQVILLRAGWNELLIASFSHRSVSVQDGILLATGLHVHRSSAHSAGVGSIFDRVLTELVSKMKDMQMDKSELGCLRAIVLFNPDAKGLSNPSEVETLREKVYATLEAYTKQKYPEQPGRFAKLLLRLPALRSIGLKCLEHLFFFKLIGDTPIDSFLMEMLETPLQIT
From the text: as §1

SMILES | Ki (RARβ) | Ki (RXRβ [1]) | EC50 (RXRα [2]) | EC50 (RXRβ [3]) | RXR Trans. β, number in parentheses after EC50 (RXRβ [3]) | Ki (RXRα [4]) | Ki (RXRγ)
CC(/C=C/[C@@H]1C[C@]1(C)c1cc(-c2c(C)cccc2C)c2c(c1)C(C)(C)CO2)=C\C(=O)O [Compound 24, 5-{(1 S 2S)-2-[7-(2,6-Dimethyl-phenyl)-3,3-dimethyl-2,3-dihydro-benzofuran-5-yl]-2-methyl-cyclopropyl}-3-methyl-penta-2E,4E-dienoic acid] | > 10000 nM | 2.6 nM | 0.52 nM | 6.7 nM | 125 | 0.7 nM | 4.8 nM
CC(/C=C/[C@@H]1C[C@]1(C)c1cc(-c2ccccc2C)c2c(c1)C(C)(C)CO2)=C\C(=O)O [Compound 26, 5-[(1S,2S)-2-(3,3-Dimethyl-7-o-tolyl-2,3-dihydro-benzofuran-5-yl)-2-methyl-cyclopropyl]-3-methyl-penta-2E,4E-dienoic acid] | > 10000 nM | 1.9 nM | 0.2 nM | 0.65 nM | 99 | 1.2 nM | 6.1 nM
CC(/C=C/[C@@H]1C[C@]1(C)c1cc(-c2ccc(C(C)(C)C)cc2)c2c(c1)C(C)(C)CO2)=C\C(=O)O [Compound 30, 5-{(1S, 2S)-2-[7-(4-tert-Butyl-phenyl)-3,3-dimethyl-2,3-dihydro-benzofuran-5-]-2-methyl-cyclopropyl}-3-methyl-pent-2E,4E-dienoic Acid] | > 10000 nM | 441 nM | 1520 nM | > 1000 nM | 50 | 129 nM | 69.9 nM
COc1ccc(-c2cc([C@@]3(C)C[C@H]3/C=C/C(C)=C/C(=O)O)cc3c2OCC3(C)C)cc1 [Compound 32, (E)-3-((E)-2-{(1S,2S)-2-[7-(4-Methoxy-phenyl)-3,3-dimethyl-2,3-dihydro-benzofuran-5-yl]-2-methyl-cyclopropyl}-vinyl)-but-2-enoic acid] | 15000 nM | 926 nM | 581 nM | > 1000 nM |  | 66 nM | 227 nM
CC(/C=C/[C@@H]1C[C@]1(C)c1cc(-c2ccc(F)cc2)c2c(c1)C(C)(C)CO2)=C\C(=O)O [Compound 34, (E)-3-((E)-2-{(1S,2S)-2-[7-(4-Fluoro-phenyl)-3,3-dimethyl-2,3-dihydro-benzofuran-5-yl]-2-methyl-cyclopropyl}-vinyl)-but-2-enoic acid] | 8750 nM | 4 nM | 0.37 nM | 4.55 nM | 93 | 0.5 nM | 1.5 nM

More lines, now with the values ahead:

Ki (RARβ) | Ki (RXRβ [1]) | EC50 (RXRα [2]) | EC50 (RXRβ [3]) | RXR Trans. β, number in parentheses after EC50 (RXRβ [3]) | Ki (RXRα [4]) | Ki (RXRγ) | SMILES
> 10000 nM | 312 nM | 609 nM | > 1000 nM |  | 114 nM | 602 nM | CC(/C=C/[C@@H]1C[C@@H]1c1ccc2c(c1)C(C)(C)CO2)=C\C(=O)O [Compound 36, (E)-3-{(E)-2-F[(1S,2S)-2-(3,3-Dimethyl-2,3-dihydro-benzofuran-5-yl)-cyclopropyl]-vinyl}-but-2-enoic acid]
> 10000 nM | 557 nM | 1950 nM | 1360 nM |  | 306 nM | 283 nM | CCCCC(O)CCc1cc([C@@]2(C)C[C@H]2/C=C/C(C)=C/C(=O)O)cc2c1OCC2(C)C (stereo partly drawn) [Compound 38, (E)-3-((E)-2-{(1S,2S)-2-[7-(3-Hydroxy-heptyl)-3,3-dimethyl-2,3-dihydro-benzofuran-5-yl]-2-methyl-cyclopropyl}-vinyl)-but-2-enoic acid]
22000 nM | 69 nM | 330 nM | 2040 nM | 103 | 41 nM | 70 nM | CCCCC(=O)CCc1cc([C@@]2(C)C[C@H]2/C=C/C(C)=C/C(=O)O)cc2c1OCC2(C)C [Compound 40]
